The results in this text go back to ChEMBL document CHEMBL3046596, “Antinociceptive activities of some triazole and pyrazoline moieties-bearing compounds” (Med Chem Res, 2012).

The test system of data set [1] is Mus musculus. Briefly: Toxicity in Mus musculus Swiss albino (mouse) assessed as vertical locomotor activity at 100 mg/kg, ip. It counts as organism-based. Details: dose 100 mg/kg, route intraperitoneal. Conditions: in vivo.
Data set [2] deals with Mus musculus. The data set is described as follows: Antinociceptive activity in Mus musculus Swiss albino (mouse) assessed as increase in reaction (paw licking and jumping) latency to thermal stimulus at 100 mg/kg, ip administered 30 min before experimental session by hot plate test. It counts as functional. To be noted: route intraperitoneal. For orientation: Hot-plate and tail-flick tests time the reaction to a heat stimulus.

Data set [3] deals with Mus musculus. Briefly: Antinociceptive activity against formalin-induced pain in Mus musculus Swiss albino (mouse) assessed as inhibition of licking during first phase (0 to 5 min) at 100 mg/kg, ip administered 30 min before experimental session. To be noted: route intraperitoneal. It counts as functional.
Data set [4] has as its system Mus musculus. Briefly: Antinociceptive activity in Mus musculus Swiss albino (mouse) assessed as prolongation of reaction latency to mechanical stimuli at 100 mg/kg, ip administered 30 min before experimental session by tail-clip test. To be noted: route intraperitoneal. It counts as functional.
For data set [5], the system named is Mus musculus. The data set is described as follows: Toxicity in Mus musculus Swiss albino (mouse) assessed as mortality at 100 mg/kg, ip. It counts as organism-based. Details: dose 100 mg/kg, route intraperitoneal. Conditions: in vivo.
Data set [6] deals with Mus musculus. Briefly: Toxicity in Mus musculus Swiss albino (mouse) assessed as horizontal locomotor activity at 100 mg/kg, ip. It counts as organism-based. Also noted: dose 100 mg/kg, route intraperitoneal. To be noted: in vivo.
In data set [7] the test system is Mus musculus. The data set is described as follows: Antinociceptive activity against formalin-induced pain in Mus musculus Swiss albino (mouse) assessed as inhibition of licking during second phase (15 to 30 min) at 100 mg/kg, ip administered 30 min before experimental session. It counts as functional. To be noted: route intraperitoneal.
For data set [8], the species on record is Mus musculus. The data set is described as follows: animal or person. Conditions: Swiss albino, ip, read-out: INH.
Description: Antinociceptive activity against formalin-induced pain in Mus musculus Swiss albino (mouse) assessed as inhibition of licking during first phase (0 to 5 min) at 10 mg/kg, ip administered 30 min before experimental session
Data set [9] is filed under the species Mus musculus. Briefly: animal or person. To be noted: Swiss albino, ip, read-out: INH. The source holds these as a separate data set.
Description: Antinociceptive activity against formalin-induced pain in Mus musculus Swiss albino (mouse) assessed as inhibition of licking during second phase (15 to 30 min) at 10 mg/kg, ip administered 30 min before experimental session
For data set [10], the system named is Mus musculus. The data set is described as follows: Antinociceptive activity in Mus musculus Swiss albino (mouse) assessed as increase in reaction (paw licking and jumping) latency to thermal stimulus at 10 mg/kg, ip administered 30 min before experimental session by hot plate test. It counts as functional. Conditions: route intraperitoneal.
The subject of data set [11] is Mus musculus. Briefly: Antinociceptive activity in Mus musculus Swiss albino (mouse) assessed as prolongation of reaction latency to mechanical stimuli at 10 mg/kg, ip administered 30 min before experimental session by tail-clip test. It counts as functional. To be noted: route intraperitoneal.

Regarding `Nn1c(CCc2ccc(O)cc2)nnc1SCC(=O)N1N=C(c2cccs2)CC1c1ccc(F)cc1` (stereo unspecified), the Activity result in the data set with Mus musculus [1] was “Non-toxic”; in the data set on Mus musculus [2], 89%; in the data set on Mus musculus [5], “Non-toxic”; in the data set on Mus musculus [6] it was “Non-toxic”. Besides, the inhibition in vivo at 100 mg/kg in the data set with Mus musculus [3] came out at 73.7%; with Mus musculus [7] it was 78.3%. In addition, in the data set on Mus musculus [4], the MPE is 85%.
Regarding `CN(C)c1ccc(C2CC(c3cccs3)=NN2C(=O)CSc2nnc(CCc3ccc(O)cc3)n2N)cc1` (stereo unspecified), the Activity result is given as “Non-toxic” with Mus musculus [1], 38.5% in the data set on Mus musculus [2], “Non-toxic” with Mus musculus [5] and “Non-toxic” in the data set with Mus musculus [6]. The inhibition in vivo at 100 mg/kg came out at 31.3% in the data set on Mus musculus [3] and 38.9% in the data set on Mus musculus [7]. In addition, the MPE in the data set with Mus musculus [4] came out at 36.5%.
As for `Nn1c(CCc2ccc(O)cc2)nnc1SCC(=O)N1N=C(c2cccs2)CC1c1ccc2c(c1)OCO2` (stereo unspecified), the Activity result is “Non-toxic” in the data set on Mus musculus [1], 45.1% in the data set on Mus musculus [2], “Non-toxic” in the data set on Mus musculus [5] and “Non-toxic” with Mus musculus [6]. Moreover, the results for the inhibition in vivo at 100 mg/kg in the data set on Mus musculus [3] and in the data set on Mus musculus [7] were 32% and 37.3%, respectively. Moreover, in the data set with Mus musculus [4], the MPE is 36.2%.
For `Nn1c(CCc2ccc(O)cc2)nnc1SCC(=O)N1N=C(c2cccs2)CC1c1ccc(Cl)cc1` (stereo unspecified), the Activity entry with Mus musculus [1] was “Non-toxic”; with Mus musculus [2], 81.6%; with Mus musculus [5] it was “Non-toxic”; in the data set with Mus musculus [6], “Non-toxic”. The inhibition in vivo at 100 mg/kg with Mus musculus [3] came to 68.7%; in the data set on Mus musculus [7], 72.1%. In addition, the MPE in the data set with Mus musculus [4] is 75.3%.
As for `CN1CC[C@]23c4c5ccc(O)c4O[C@H]2[C@@H](O)C=C[C@H]3[C@H]1C5` [MORPHINE], the inhibition in vivo at 10 mg/kg in the data set listed under Mus musculus [8] and in the data set listed under Mus musculus [9] was 100% in each case. Besides, the Activity in the data set with Mus musculus [10] worked out at 92.5%. Besides, in the data set with Mus musculus [11], the MPE is 88.1%.
Consider `Nn1c(CCc2ccc(O)cc2)nnc1SCC(=O)N1N=C(c2cccs2)CC1c1ccccc1` (stereo unspecified), for which the Activity result in the data set with Mus musculus [1] is “Non-toxic”; in the data set on Mus musculus [2], 79.4%; in the data set on Mus musculus [5] it was “Non-toxic”; in the data set on Mus musculus [6], “Non-toxic”. The inhibition in vivo at 100 mg/kg in the data set on Mus musculus [3] was found to be 66.6%; in the data set with Mus musculus [7], 79.2%. Moreover, in the data set with Mus musculus [4], the MPE was 80.2%.
Take `Cc1ccc(C2CC(c3cccs3)=NN2C(=O)CSc2nnc(CCc3ccc(O)cc3)n2N)cc1` (stereo unspecified): the Activity result in the data set on Mus musculus [1] is “Non-toxic”; in the data set with Mus musculus [2] it was 50.3%; in the data set with Mus musculus [5], “Non-toxic”; in the data set with Mus musculus [6], “Non-toxic”. In addition, the values for the inhibition in vivo at 100 mg/kg in the data set on Mus musculus [3] and in the data set on Mus musculus [7] were 35.4% and 42.5%, respectively. Moreover, in the data set on Mus musculus [4], the MPE is 53.5%.
